Reference: ChEMBL document CHEMBL4145475, “Integration of multi-scale molecular modeling approaches with experiments for the in silico guided design and discovery of novel hERG-Neutral antihypertensive oxazalone and imidazolone derivatives and analysis of their potential restrictive effects on cell proliferation” (Eur J Med Chem, 2018)
Calls of active or inactive are those of the source. The rule behind the calls is not given here.

Tests used:
[1] = target: T1, Type-1 angiotensin II receptor (Homo sapiens) (UniProt P30556); assay: (§1) Displacement of [125I-Sar1-Ile8]-Ang2 from human angiotensin 2 receptor type 1 receptor expressed in HEK293 cells after 1 hr by gamma counting analysis; type: cell-based
T1 sequence (whole entry): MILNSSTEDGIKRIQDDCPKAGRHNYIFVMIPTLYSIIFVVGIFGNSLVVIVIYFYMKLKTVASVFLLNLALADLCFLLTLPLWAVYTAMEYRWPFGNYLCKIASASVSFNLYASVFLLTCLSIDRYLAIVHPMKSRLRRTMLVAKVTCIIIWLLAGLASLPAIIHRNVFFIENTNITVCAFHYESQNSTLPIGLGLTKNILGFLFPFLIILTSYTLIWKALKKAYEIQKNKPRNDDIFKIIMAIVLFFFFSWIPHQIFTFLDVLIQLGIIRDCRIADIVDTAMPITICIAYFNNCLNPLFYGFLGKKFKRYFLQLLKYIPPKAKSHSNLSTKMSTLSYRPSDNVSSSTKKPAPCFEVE

[2] = target: T2, Type-1 angiotensin II receptor (Homo sapiens, UniProt P30556); assay: as §1; type: cell-based
T2 sequence (P30556 whole entry): T1 sequence (whole entry)

NIH3T3 [3] = assay: Cytotoxicity against mouse NIH/3T3 cells up to 30 uM after 48 hrs by WST-1 assay; type: cell-based; conditions: nih3t3, 48 h
NCI-H358 [4] = assay: Cytotoxicity against human NCI-H358 cells at 1 to 10 uM after 48 hrs measured during wound-healing assay; type: cell-based; conditions: nci-h358, 48 h
A549 [5] = assay: Cytotoxicity against human A549 cells up to 30 uM after 48 hrs by WST-1 assay; type: cell-based; conditions: a549, 48 h
NCI-H358 [6] = assay: Cytotoxicity against human NCI-H358 cells up to 30 uM after 48 hrs by WST-1 assay; type: cell-based; conditions: nci-h358, 48 h
NIH3T3 [7] = assay: Cytotoxicity against mouse NIH/3T3 cells at 1 to 10 uM after 72 hrs measured during wound-healing assay; type: cell-based; conditions: nih3t3, 72 h
A549 [8] = assay: Cytotoxicity against human A549 cells at 1 to 10 uM after 72 hrs measured during wound-healing assay; type: cell-based; conditions: a549, 72 h
NIH3T3 [9] = assay: Antimigratory activity against mouse NIH/3T3 cells at 10 uM after 72 hrs by wound-healing assay; type: ADME, cell-based; conditions: nih3t3, 72 h
A549 [10] = assay: Antimigratory activity against human A549 cells at 10 uM after 72 hrs by wound-healing assay; type: functional, cell-based
NCI-H358 [11] = assay: Antimigratory activity against human NCI-H358 cells at 10 uM after 48 hrs by wound-healing assay; type: functional, cell-based
HUVEC [12] = assay: Cell cycle arrest in human HUVEC cells assessed as decrease in cells at G0/G1 phase after 24 hrs by propidium iodide staining-based flow cytometric analysis; type: ADME
HUVEC [13] = assay: Cell cycle arrest in human HUVEC cells assessed as increase in cells at G2/M phase after 24 hrs by propidium iodide staining-based flow cytometric analysis; type: ADME
MCF7 [14] = assay: Cell cycle arrest in human MCF7 cells assessed as decrease in cells at G0/G1 phase after 48 hrs by propidium iodide staining-based flow cytometric analysis; type: functional
MCF7 [15] = assay: Cell cycle arrest in human MCF7 cells assessed as increase in cells at G2/M phase after 48 hrs by propidium iodide staining-based flow cytometric analysis; type: functional
HUVEC [16] = assay: Cell cycle arrest in human HUVEC cells assessed as accumulation of cells with 8N DNA content at 100 uM after 1 to 2 days by propidium iodide staining-based flow cytometric analysis relative to control; type: ADME
MCF7 [17] = assay: Cell cycle arrest in human MCF7 cells assessed as accumulation of cells with 8N DNA content at 100 uM after 1 to 2 days by propidium iodide staining-based flow cytometric analysis relative to control; type: functional
HUVEC [18] = assay: Cell cycle arrest in human HUVEC cells assessed as cell detachment at 50 to 100 uM after 24 hrs by propidium iodide staining-based flow cytometric analysis; type: ADME
HUVEC [19] = assay: Cell cycle arrest in human HUVEC cells assessed as cell death at 50 to 100 uM after 24 hrs by propidium iodide staining-based flow cytometric analysis; type: ADME
HUVEC [20] = assay: Cell cycle arrest in human HUVEC cells assessed as accumulation of cells at subG1 phase at 50 to 100 uM after 24 hrs by propidium iodide staining-based flow cytometric analysis; type: ADME
MCF7 [21] = assay: Cell cycle arrest in human MCF7 cells assessed as cell detachment at 50 to 100 uM after 24 hrs by propidium iodide staining-based flow cytometric analysis; type: functional
MCF7 [22] = assay: Cell cycle arrest in human MCF7 cells assessed as cell death at 50 to 100 uM after 24 hrs by propidium iodide staining-based flow cytometric analysis; type: functional
MCF7 [23] = assay: Cell cycle arrest in human MCF7 cells assessed as accumulation of cells at subG1 phase at 50 to 100 uM after 24 hrs by propidium iodide staining-based flow cytometric analysis; type: functional

With `CCCCC1=N/C(=C\c2ccccc2Br)C(=O)N1Cc1ccc(-c2ccccc2-c2nnn(C(c3ccccc3)(c3ccccc3)c3ccccc3)n2)cc1` as the compound, how does the inhibition [1] read?
Its inhibition is “Dose-dependent effect”.

And the Ki [2]?
Its Ki is 317 nM.

And the Activity (NIH3T3 [3])?
The Activity was “Non-Toxic”.

And the Activity (NCI-H358 [4])?
Its Activity is “Non-Toxic”.

And the Activity (A549 [5])?
Its Activity is “Non-Toxic”.

And the Activity (NCI-H358 [6])?
The Activity was “Non-Toxic”.

And the Activity (NIH3T3 [7])?
The Activity was “Non-Toxic”.

What about the Activity (A549 [8]) of the same compound?
Its Activity is “Non-Toxic”.

What about the Activity (NIH3T3 [9]) of the same compound?
The Activity was “Toxic”.

What about the Activity (A549 [10]) of the same compound?
Its Activity is “Active”.

With `CCOc1nc2cccc(C(=O)O)c2n1Cc1ccc(-c2ccccc2-c2nnn[nH]2)cc1` as the compound, how does the Ki [2] read?
Its Ki is 10.4 nM.

For `CCCCC1=N/C(=C\c2cccc(Br)c2)C(=O)N1Cc1ccc(-c2ccccc2-c2nnn(C(c3ccccc3)(c3ccccc3)c3ccccc3)n2)cc1`, which Activity (NIH3T3 [3]) is on record?
The Activity was “Non-Toxic”.

What about the Activity (NCI-H358 [4]) of the same compound?
The Activity was “Non-Toxic”.

And the Activity (A549 [5])?
The Activity was “Non-Toxic”.

And the Activity (NCI-H358 [6])?
The Activity was “Non-Toxic”.

What about the Activity (NIH3T3 [7]) of the same compound?
Its Activity is “Non-Toxic”.

What about the Activity (A549 [8]) of the same compound?
Its Activity is “Non-Toxic”.

What about the Activity (A549 [10]) of the same compound?
The Activity was “Active”.

What about the Activity (NCI-H358 [11]) of the same compound?
The Activity was “Active”.

Which Activity (NIH3T3 [3]) does the source give for `CCCCC(=O)N(Cc1ccc(-c2ccccc2-c2nnn[nH]2)cc1)[C@H](C(=O)O)C(C)C` here?
The Activity was “Non-Toxic”.

What about the Activity (A549 [5]) of the same compound?
Its Activity is “Non-Toxic”.

And the Activity (NCI-H358 [6])?
Its Activity is “Non-Toxic”.

What about the Activity (NIH3T3 [9]) of the same compound?
The Activity was “Toxic”.

And the Activity (A549 [10])?
The Activity was “Active”.

And the Activity (NCI-H358 [11])?
The Activity was “Active”.

With `CCCCC1=N/C(=C\c2ccc(Br)cc2)C(=O)N1Cc1ccc(-c2ccccc2-c2nnn(C(c3ccccc3)(c3ccccc3)c3ccccc3)n2)cc1` as the compound, how does the Activity (NIH3T3 [3]) read?
The Activity was “Non-Toxic”.

What about the Activity (NCI-H358 [4]) of the same compound?
Its Activity is “Non-Toxic”.

What about the Activity (A549 [5]) of the same compound?
Its Activity is “Non-Toxic”.

And the Activity (NCI-H358 [6])?
Its Activity is “Non-Toxic”.

And the Activity (NIH3T3 [7])?
Its Activity is “Non-Toxic”.

And the Activity (A549 [8])?
Its Activity is “Non-Toxic”.

What about the Activity (NCI-H358 [11]) of the same compound?
Its Activity is “Active”.

How did the Ki [2] turn out when `CCCCC1=N/C(=C\c2ccc(Br)cc2)C(=O)N1Cc1ccc(-c2ccccc2C#N)cc1` was run?
The Ki was 24800 nM.

What about the Activity (NIH3T3 [3]) of the same compound?
Its Activity is “Non-Toxic”.

And the Activity (NCI-H358 [4])?
The Activity was “Non-Toxic”.

And the Activity (A549 [5])?
The Activity was “Non-Toxic”.

And the Activity (NCI-H358 [6])?
The Activity was “Non-Toxic”.

And the Activity (NIH3T3 [7])?
The Activity was “Non-Toxic”.

What about the Activity (A549 [8]) of the same compound?
The Activity was “Non-Toxic”.

And the Activity (NIH3T3 [9])?
Its Activity is “Toxic”.

What about the Activity (A549 [10]) of the same compound?
The Activity was “Active”.

What about the Activity (NCI-H358 [11]) of the same compound?
The Activity was “Active”.

And the Activity (HUVEC [12])?
The Activity was “Dose-dependent effect”.

And the Activity (HUVEC [13])?
The Activity was “Dose-dependent effect”.

What about the Activity (MCF7 [14]) of the same compound?
Its Activity is “Dose-dependent effect”.

And the Activity (MCF7 [15])?
The Activity was “Dose-dependent effect”.

What about the Activity (HUVEC [16]) of the same compound?
Its Activity is 90%.

What about the Activity (MCF7 [17]) of the same compound?
Its Activity is greater than 70%.

What about the Activity (HUVEC [18]) of the same compound?
The Activity was “Toxic”.

And the Activity (HUVEC [19])?
The Activity was “Toxic”.

What about the Activity (HUVEC [20]) of the same compound?
The Activity was “Toxic”.

And the Activity (MCF7 [21])?
The Activity was “Active”.

What about the Activity (MCF7 [22]) of the same compound?
The Activity was “Active”.

And the Activity (MCF7 [23])?
Its Activity is “Active”.

What does the source list for `CCCCC1=N/C(=C\c2ccc(Cl)cc2)C(=O)N1Cc1ccc(-c2ccccc2-c2nnn(C(c3ccccc3)(c3ccccc3)c3ccccc3)n2)cc1`?
Activity (NIH3T3 [3]): Non-Toxic; Activity (NCI-H358 [4]): Non-Toxic; Activity (A549 [5]): Non-Toxic; Activity (NCI-H358 [6]): Non-Toxic; Activity (NIH3T3 [7]): Non-Toxic; Activity (A549 [8]): Non-Toxic

`CCCCC1=N/C(=C\c2cccc(Cl)c2)C(=O)N1Cc1ccc(-c2ccccc2-c2nnn(C(c3ccccc3)(c3ccccc3)c3ccccc3)n2)cc1` was tested. Which Activity (NIH3T3 [3]) did it give?
The Activity was “Non-Toxic”.

What about the Activity (NCI-H358 [4]) of the same compound?
Its Activity is “Non-Toxic”.

What about the Activity (A549 [5]) of the same compound?
Its Activity is “Non-Toxic”.

What about the Activity (NCI-H358 [6]) of the same compound?
Its Activity is “Non-Toxic”.

What about the Activity (NIH3T3 [7]) of the same compound?
The Activity was “Non-Toxic”.

What about the Activity (A549 [8]) of the same compound?
The Activity was “Non-Toxic”.

What about the Activity (A549 [10]) of the same compound?
Its Activity is “Active”.
